Test results published in patent US20090131481A1, “Transcription Factor Modulating Compounds and Methods of Use Thereof” (Paratek Pharmaceuticals, Inc., published 2009).
Read-outs that look alike come from different tables or passages of the source.

Columns and labels:
ExsA = target: T1, ExsA (Pseudomonas aeruginosa, UniProt P26993); test: Chemiluminescence-based ExsA-DNA binding assay; parameters: species or system P. aeruginosa; conditions: Table 7, cell-free system; read-out: ExsA EC50
T1 construct: made in house
T1 sequence (P26993 1-278): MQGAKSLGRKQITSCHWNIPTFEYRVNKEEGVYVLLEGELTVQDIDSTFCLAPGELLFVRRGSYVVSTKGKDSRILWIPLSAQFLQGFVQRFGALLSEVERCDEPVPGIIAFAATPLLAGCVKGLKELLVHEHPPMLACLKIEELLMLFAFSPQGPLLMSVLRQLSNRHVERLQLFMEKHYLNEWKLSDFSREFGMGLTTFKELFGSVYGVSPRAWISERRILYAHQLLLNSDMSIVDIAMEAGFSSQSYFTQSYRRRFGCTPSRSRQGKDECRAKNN

Y. pseudotuberculosis = test: microbe, parasite or virus in culture; conditions: Yersinia pseudotuberculosis, J774, read-out: % Cytotoxicity
P. aeruginosa = P. aeruginosa cytotoxicity whole cell assay (J774 cells, LDH release); conditions: relative to vehicle treated cells infected with wild type P. aeruginosa
LcrF (VirF) = LcrF (VirF) (Yersinia pestis, UniProt P28808); test: biochemical; type: binding, Y. pseudotuberculosis
[1] = EC50 for inhibition of LcrF(VirF)-DNA binding

Sequence of LcrF (VirF) (P28808 whole entry, looked up): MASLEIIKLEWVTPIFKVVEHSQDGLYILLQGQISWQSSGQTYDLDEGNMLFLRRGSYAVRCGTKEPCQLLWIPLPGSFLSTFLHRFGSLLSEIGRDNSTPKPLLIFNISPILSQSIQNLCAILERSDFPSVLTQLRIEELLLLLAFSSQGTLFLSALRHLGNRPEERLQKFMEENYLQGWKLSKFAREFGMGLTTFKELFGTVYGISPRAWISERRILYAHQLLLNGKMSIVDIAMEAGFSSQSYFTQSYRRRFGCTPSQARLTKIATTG

## O=C(/C=C/c1ccc(F)cc1)Nc1ccc(-c2nc3ccc([N+](=O)[O-])cc3n2O)cc1F [EL, (E)-N-[2-Fluoro-4-(1-hydroxy-6-nitro-1H-benzoimidazol-2-yl)-phenyl]-3-(4-fluoro-phenyl)-acrylamide]
ExsA
  EC50: 10 to 25 µM
Y. pseudotuberculosis
  activity at 50 µg/mL: < 75%
P. aeruginosa
  Cytotoxicity at 50 μg/mL Pseudomonas: * (reduced P. aeruginosa cytotoxicity to 99-75% of untreated, wild type levels at 50 mg/mL)
LcrF (VirF); [1]
  EC50: 10 to 25 µM

## CN(C)c1cc2nc(-c3ccc(NC(=O)/C=C/c4ccc(F)cc4)cc3)n(O)c2cc1[N+](=O)[O-] [EZ, N-[4-(5-Dimethylamino-1-hydroxy-6-nitro-1H-benzoimidazol-2-yl)-phenyl]-3-(4-fluorocinnamyl)-amide]
ExsA
  EC50: 10 to 25 µM
Y. pseudotuberculosis
  activity at 50 µg/mL: 75 to 99%
P. aeruginosa
  Cytotoxicity at 50 μg/mL Pseudomonas: ** (reduced P. aeruginosa cytotoxicity below 75% of untreated, wild type levels at 50 mg/mL)
LcrF (VirF); [1]
  EC50: > 25 µM

## O=C(Nc1ccc(-c2nc3ccc([N+](=O)[O-])cc3n2O)cc1)c1ccccc1O [DN]
ExsA
  EC50: 10 to 25 µM
Y. pseudotuberculosis
  activity at 50 µg/mL: < 75%
P. aeruginosa
  Cytotoxicity at 50 μg/mL Pseudomonas: * (reduced P. aeruginosa cytotoxicity to 99-75% of untreated, wild type levels at 50 mg/mL)
LcrF (VirF); [1]
  EC50: 10 to 25 µM

## O=C(/C=C/c1ccc(F)cc1)Nc1ccc(-c2nc3ccc([N+](=O)[O-])cc3n2O)nc1 [DZ]
Y. pseudotuberculosis
  activity at 50 µg/mL: < 75%
P. aeruginosa
  Cytotoxicity at 50 μg/mL Pseudomonas: * (reduced P. aeruginosa cytotoxicity to 99-75% of untreated, wild type levels at 50 mg/mL)
LcrF (VirF); [1]
  EC50: 10 to 25 µM

## O=C(/C=C/c1ccc(F)cc1)Nc1ccc(-c2nc3ccc([N+](=O)[O-])cc3n2O)cn1 [DY]
Y. pseudotuberculosis
  activity at 50 µg/mL: < 75%
P. aeruginosa
  Cytotoxicity at 50 μg/mL Pseudomonas: * (reduced P. aeruginosa cytotoxicity to 99-75% of untreated, wild type levels at 50 mg/mL)

## Cc1ccc(/C=C/C(=O)Nc2ccc(-c3nc4ccc(C#N)cc4n3O)cc2)cc1 [CP]
Y. pseudotuberculosis
  activity at 50 µg/mL: 75 to 99%
P. aeruginosa
  Cytotoxicity at 50 μg/mL Pseudomonas: * (reduced P. aeruginosa cytotoxicity to 99-75% of untreated, wild type levels at 50 mg/mL)
LcrF (VirF); [1]
  EC50: 10 to 25 µM

## N#Cc1ccc2nc(-c3ccc(NC(=O)/C=C/c4ccccc4)cc3)n(O)c2c1 [CL]
ExsA
  EC50: 10 to 25 µM
Y. pseudotuberculosis
  activity at 50 µg/mL: < 75%
P. aeruginosa
  Cytotoxicity at 50 μg/mL Pseudomonas: * (reduced P. aeruginosa cytotoxicity to 99-75% of untreated, wild type levels at 50 mg/mL)
LcrF (VirF); [1]
  EC50: 10 to 25 µM

## O=C(/C=C/c1ccc(-n2cncn2)cc1)Nc1ccc(-c2nc3ccc([N+](=O)[O-])cc3n2O)cc1 [EU, (E)-N-[4-(1-Hydroxy-6-nitro-1H-benzoimidazol-2-yl)-phenyl]-3-(4-[1,2,4]triazol-1-yl-phenyl)-acrylamide]
Y. pseudotuberculosis
  activity at 50 µg/mL: 75 to 99%
P. aeruginosa
  Cytotoxicity at 50 μg/mL Pseudomonas: ** (reduced P. aeruginosa cytotoxicity below 75% of untreated, wild type levels at 50 mg/mL)
LcrF (VirF); [1]
  EC50: > 25 µM

## O=C(/C=C/c1ccc(F)cc1)Nc1ccc(-c2nc3ccc([N+](=O)[O-])cc3n2OCP(=O)(O)O)cc1 [DW, (2-{4-[(E)-3-(4-Fluoro-phenyl)-acrloylamino]-phenyl}-6-nitro-benzoimidazol-1-yloxymethyl)-phosphonic acid]
Y. pseudotuberculosis
  activity at 50 µg/mL: 75 to 99%
P. aeruginosa
  Cytotoxicity at 50 μg/mL Pseudomonas: * (reduced P. aeruginosa cytotoxicity to 99-75% of untreated, wild type levels at 50 mg/mL)

## CC(=O)c1ccc(C(=O)Nc2ccc(-c3nc4ncc([N+](=O)[O-])cc4n3O)cc2)cc1 [DJ]
Y. pseudotuberculosis
  activity at 50 µg/mL: < 75%
P. aeruginosa
  Cytotoxicity at 50 μg/mL Pseudomonas: * (reduced P. aeruginosa cytotoxicity to 99-75% of untreated, wild type levels at 50 mg/mL)
LcrF (VirF); [1]
  EC50: 10 to 25 µM

## N#Cc1ccc(C(=O)Nc2ccc(-c3nc4ccc(C#N)cc4n3O)cc2)cc1 [CO]
Y. pseudotuberculosis
  activity at 50 µg/mL: 75 to 99%
P. aeruginosa
  Cytotoxicity at 50 μg/mL Pseudomonas: * (reduced P. aeruginosa cytotoxicity to 99-75% of untreated, wild type levels at 50 mg/mL)

## O=C(C/C=C/c1ccccc1)Nc1ccc(-c2nc3ccc([N+](=O)[O-])cc3n2O)cc1 [CY]
Y. pseudotuberculosis
  activity at 50 µg/mL: < 75%
P. aeruginosa
  Cytotoxicity at 50 μg/mL Pseudomonas: * (reduced P. aeruginosa cytotoxicity to 99-75% of untreated, wild type levels at 50 mg/mL)
LcrF (VirF); [1]
  EC50: > 25 µM

## CN(C)C(=O)c1ccc(C(=O)Nc2ccc(-c3nc4ccc([N+](=O)[O-])cc4n3O)cc2)cc1 [FB]
ExsA
  EC50: > 25 µM
Y. pseudotuberculosis
  activity at 50 µg/mL: < 75%
P. aeruginosa
  Cytotoxicity at 50 μg/mL Pseudomonas: * (reduced P. aeruginosa cytotoxicity to 99-75% of untreated, wild type levels at 50 mg/mL)

## CC(=O)c1ccc(C(=O)Nc2ccc(-c3nc4ccc(C#N)cc4n3O)cc2)cc1 [AA]
Y. pseudotuberculosis
  activity at 50 µg/mL: < 75%
P. aeruginosa
  Cytotoxicity at 50 μg/mL Pseudomonas: ** (reduced P. aeruginosa cytotoxicity below 75% of untreated, wild type levels at 50 mg/mL)
LcrF (VirF); [1]
  EC50: > 25 µM

## O=C(Nc1ccc(-c2nc3ccc([N+](=O)[O-])cc3n2O)cc1)/C(=C/c1ccccc1)c1ccccc1 [CQ]
ExsA
  EC50: 10 to 25 µM
Y. pseudotuberculosis
  activity at 50 µg/mL: < 75%
P. aeruginosa
  Cytotoxicity at 50 μg/mL Pseudomonas: ** (reduced P. aeruginosa cytotoxicity below 75% of untreated, wild type levels at 50 mg/mL)

## O=C(/C=C/c1ccc(F)cc1F)Nc1ccc(-c2nc3ccc([N+](=O)[O-])cc3n2O)cn1 [EB]
Y. pseudotuberculosis
  activity at 50 µg/mL: < 75%
P. aeruginosa
  Cytotoxicity at 50 μg/mL Pseudomonas: * (reduced P. aeruginosa cytotoxicity to 99-75% of untreated, wild type levels at 50 mg/mL)

## O=C(Nc1ccc(-c2nc3ccc([N+](=O)[O-])cc3n2O)cc1)/C(F)=C/c1ccccc1 [CR]
Y. pseudotuberculosis
  activity at 50 µg/mL: < 75%
P. aeruginosa
  Cytotoxicity at 50 μg/mL Pseudomonas: ** (reduced P. aeruginosa cytotoxicity below 75% of untreated, wild type levels at 50 mg/mL)
LcrF (VirF); [1]
  EC50: 10 to 25 µM

## Cc1cc2nc(-c3ccc(NC(=O)c4ccc(-c5cnco5)cc4)cc3)n(O)c2cc1[N+](=O)[O-] [EX, N-[4-(1-Hydroxy-5-methyl-6-nitro-1H-benzoimidazol-2-yl)-phenyl]-4-oxazol-5-v-benzamide]
Y. pseudotuberculosis
  activity at 50 µg/mL: 75 to 99%
P. aeruginosa
  Cytotoxicity at 50 μg/mL Pseudomonas: ** (reduced P. aeruginosa cytotoxicity below 75% of untreated, wild type levels at 50 mg/mL)
LcrF (VirF); [1]
  EC50: > 25 µM

## CCOc1cc2nc(-c3ccc(NC(=O)/C=C/c4ccc(F)cc4)cc3)n(O)c2cc1[N+](=O)[O-] [EV, (E)-N-[4-(5-Ethoxy-1-hydroxy-6-nitro-1H-benzoimidazol-2-yl)-phenyl]-3-(4-fluoro-phenyl)-acrylamide]
Y. pseudotuberculosis
  activity at 50 µg/mL: 75 to 99%
P. aeruginosa
  Cytotoxicity at 50 μg/mL Pseudomonas: ** (reduced P. aeruginosa cytotoxicity below 75% of untreated, wild type levels at 50 mg/mL)
LcrF (VirF); [1]
  EC50: 10 to 25 µM

## O=C(/C=C/c1ccc(F)cc1F)Nc1ccc(-c2nc3ccc([N+](=O)[O-])cc3n2O)nc1 [EA]
Y. pseudotuberculosis
  activity at 50 µg/mL: < 75%
P. aeruginosa
  Cytotoxicity at 50 μg/mL Pseudomonas: * (reduced P. aeruginosa cytotoxicity to 99-75% of untreated, wild type levels at 50 mg/mL)

## CC(=O)c1ccc(C(=O)Nc2ccc(-c3nc4ccc([N+](=O)[O-])cc4n3O)cc2F)cc1 [EM, 4-Acetyl-N-[2-fluoro-4-(1-hydroxy-6-nitro-H-benzoimidazol-2-yl)-phenyl]-benzamide]
Y. pseudotuberculosis
  activity at 50 µg/mL: < 75%
P. aeruginosa
  Cytotoxicity at 50 μg/mL Pseudomonas: * (reduced P. aeruginosa cytotoxicity to 99-75% of untreated, wild type levels at 50 mg/mL)
LcrF (VirF); [1]
  EC50: 10 to 25 µM

## O=C(/C=C/c1ccc(-n2ccnc2)cc1)Nc1ccc(-c2nc3ccc([N+](=O)[O-])cc3n2O)cc1 [AM, (E)-N-[4-(1-Hydroxy-6-nitro-1H-benzoimidazol-2-yl)-phenyl]-3-(4-imidazol-1-yl-phenyl)-acrylamide]
Y. pseudotuberculosis
  activity at 50 µg/mL: 75 to 99%
P. aeruginosa
  Cytotoxicity at 50 μg/mL Pseudomonas: ** (reduced P. aeruginosa cytotoxicity below 75% of untreated, wild type levels at 50 mg/mL)
LcrF (VirF); read-out: EC50 for inhibition of LcrF(VirF)-DNA binding
  EC50: > 25 µM

## CC(=O)c1ccc(C(=O)Nc2ccc(-c3nc4cc(C)c([N+](=O)[O-])cc4n3O)cc2)cc1 [EQ]
Y. pseudotuberculosis
  activity at 50 µg/mL: < 75%
P. aeruginosa
  Cytotoxicity at 50 μg/mL Pseudomonas: * (reduced P. aeruginosa cytotoxicity to 99-75% of untreated, wild type levels at 50 mg/mL)

## O=C(/C=C/c1ccc(F)cc1)Nc1ccc(-c2nc3ccc([N+](=O)[O-])cc3n2O)c(F)c1 [EI]
ExsA
  EC50: 10 to 25 µM
Y. pseudotuberculosis
  activity at 50 µg/mL: 75 to 99%
P. aeruginosa
  Cytotoxicity at 50 μg/mL Pseudomonas: * (reduced P. aeruginosa cytotoxicity to 99-75% of untreated, wild type levels at 50 mg/mL)

## COc1ccc(/C=C/C(=O)Nc2ccc(-c3nc4ccc([N+](=O)[O-])cc4n3O)cc2)c(OC)c1 [AK]
Y. pseudotuberculosis
  activity at 50 µg/mL: 75 to 99%
P. aeruginosa
  Cytotoxicity at 50 μg/mL Pseudomonas: * (reduced P. aeruginosa cytotoxicity to 99-75% of untreated, wild type levels at 50 mg/mL)
LcrF (VirF); [1]
  EC50: > 25 µM

## Cc1cc2nc(-c3ccc(NC(=O)/C=C/c4ccc(F)cc4)cc3)n(O)c2cc1[N+](=O)[O-] [EO, (E)-3-(4-Fluoro-phenyl)-N-[4-(1-hydroxy-5-methyl-6-nitro-1H-benzoimidazol-2-yl)-phenyl]-acrylamide]
Y. pseudotuberculosis
  activity at 50 µg/mL: 75 to 99%
P. aeruginosa
  Cytotoxicity at 50 μg/mL Pseudomonas: ** (reduced P. aeruginosa cytotoxicity below 75% of untreated, wild type levels at 50 mg/mL)
